Laboratory results taken from PMC12528448, “Resistance to CDK7 inhibitors directed by acquired mutation of a conserved residue in cancer cells” (The EMBO Journal, 2025).
“And” between values parts separate entries of the source, which are not always exact repeats. Equal entries are not always repeated.

Legend:
22Rv1-SamR cells = assay: Growth assay (SRB), Samuraciclib-resistant 22Rv1; assay type: cell-based, human; conditions: for % Growth: 22Rv1 SamR, 4 days, biological reps
Method: (§1) To determine the IC50 of drug treatments on growth, cells were seeded in 96-well culture plates. Two days after seeding, the cells were treated with increasing concentrations of drugs and incubated for 4 days. Cell number was determined using the SRB assay (Skehan et al, [1990]), and IC50 values were calculated using non-linear regression curve fitting in GraphPad Prism v10. For all other growth experiments, cells were seeded into 96-well plates, and appropriate drugs were added 2 days after seeding. Cells were then incubated in an IncuCyte Zoom live-cell imager, with cell confluency measured every 6 h. Cell doubling times were determined by non-linear curve fitting (exponential growth equation) in GraphPad Prism v10.

MCF7-CDK7-D97N cells = assay: Growth assay (SRB), MCF7 CDK7-D97N knock-in; assay type: cell-based, human; conditions: for IC50: MCF7-CDK7-D97N, SRB; for IC50 / % Growth: 4 days; for % Growth: MCF7 CDK7 D99N, biological reps
Method: as §1
Alt-R^TM S.p. Cas9 nuclease V3, Alt-R CRISPR-Cas9 crRNA, TracrRNA and the donor templates were obtained from Integrated DNA Technologies. […] Cells were treated with 0.7 µM of Alt-R HDR Enhancer V2 to improve HRD efficiency. Sequences of the CRISPRs in the crRNA and the donor templates are shown in the Reagents and tools table. Donor templates were designed to include non-coding substitutions to aid genome DNA PCR for identifying knock-in events and to facilitate cloning; these substitutions are noted in the Reagents and tools table.

Compound | % Growth (22Rv1-SamR cells; Log10 Conc. (nM) 0.09) | % Growth (22Rv1-SamR cells; Log10 Conc. (nM) 0.69) | % Growth (22Rv1-SamR cells; Log10 Conc. (nM) 1.29) | % Growth (22Rv1-SamR cells; Log10 Conc. (nM) 1.89) | % Growth (22Rv1-SamR cells; Log10 Conc. (nM) 2.49) | % Growth (22Rv1-SamR cells; Log10 Conc. (nM) 3.10) | % Growth (22Rv1-SamR cells; Log10 Conc. (nM) 3.70) | % Growth (22Rv1-SamR cells; Log10 Conc. (nM) 4.30) | % Growth (22Rv1-SamR cells; Log10 Conc. (nM) -0.52) | IC50 (MCF7-CDK7-D97N cells) [nM] | % Growth (MCF7-CDK7-D97N cells; Log10 Conc. (nM) 0.09) | % Growth (MCF7-CDK7-D97N cells; Log10 Conc. (nM) 0.69) | % Growth (MCF7-CDK7-D97N cells; Log10 Conc. (nM) 1.29) | % Growth (MCF7-CDK7-D97N cells; Log10 Conc. (nM) 1.89) | % Growth (MCF7-CDK7-D97N cells; Log10 Conc. (nM) 2.49) | % Growth (MCF7-CDK7-D97N cells; Log10 Conc. (nM) 3.10) | % Growth (MCF7-CDK7-D97N cells; Log10 Conc. (nM) -0.52) | % Growth (MCF7-CDK7-D97N cells; Log10 Conc. (nM) -1.12) | further results
CC(C)c1cnn2c(NCc3ccccc3-n3cccn3)nc(OC3CCCNC3)nc12 (stereo not shown) [LDC4297] | 97.61% and 104.31% | 95.33% and 95.56% | 91.02% and 93.49% | 85.93% and 89.36% | 74.46% and 80.17% | 45.54% and 51.37% | 16.52% and 21.74% | -6.89% and -7.33% | 95.69% and 97.10% | 284 | 97.54% and 102.97% and 111.53% | 89.88% and 95.95% and 106.23% | 86.58% and 89.18% and 107.98% | 78.14% and 75.55% and 98.88% | 36.43% and 41.92% and 46.72% | 15.57% and 25.31% and 26.65% | 94.29% and 106.05% and 120.50% | – | Resistance (Fold), fold increase in IC50 of 22Rv1-SamR relative to 22Rv1 (22Rv1-SamR cells; 22Rv1-SamR vs 22Rv1): 45 fold; Resistance (Fold) (MCF7-CDK7-D97N cells; MCF7-CDK7-D97N vs MCF7 WT): 38.8 fold
CC1(C)CC[C@H](Nc2ncc(C(F)(F)F)c(-c3c[nH]c4c(P(C)(C)=O)c(C#N)ccc34)n2)CN1 [SY-5609] | 94.28% and 98.03% | 91.01% and 94.67% | 84.55% and 89.75% | 83.73% and 90.98% | 88.47% and 92.95% | 68.45% and 76.13% | 36.40% and 39.48% | 6.16% and 8.88% | 92.07% and 94.10% | – | 88.22% and 97.32% and 92.10% and 108.93% | 88.11% and 85.92% and 101.83% and 99.60% | 81.14% and 79.33% and 92.68% and 97.87% | 89.93% and 77.62% and 97.65% and 101.83% | 82.25% and 82.01% and 84.62% and 85.57% | 41.10% and 27.90% and 46.54% and 47.24% | 98.29% and 101.10% and 99.90% and 99.11% | 96.96% and 102.40% and 98.33% and 102.73% | IC50 (MCF7-CDK7-D97N cells; Homo sapiens, 96 h): 1550 nM
CN(C)C/C=C/C(=O)Nc1ccc(C(=O)Nc2cccc(Nc3ncc(Cl)c(-c4c[nH]c5ccccc45)n3)c2)cc1 [THZ1] | 83.75% and 87.25% | 68.41% and 67.61% | 30.25% and 41.41% | -7.69% and -2.73% | -11.43% and -7.53% | -11.82% and -8.43% | -15.22% and -10.53% | – | 93.15% and 99.90% | 68.7 | 97.12% and 98.47% and 91.37% | 86.82% and 92.10% and 89.13% | 76.30% and 76.07% and 72.54% | 35.33% and 47.81% and 46.77% | -1.00% and 8.40% and 7.81% | – | 99.89% and 102.56% and 100.45% | 96.07% and 101.58% and 94.36% | Sensitivity in growth assays (22Rv1-SamR cells; 22Rv1-SamR): remained sensitive; % Growth (22Rv1-SamR cells; Log10 Conc. (nM) -1.12): 93.43% and 95.60%
